Experimental data: ChEMBL document CHEMBL1133672, “Replacement of glycine with dicarbonyl and related moieties in analogues of the C-terminal pentapeptide of cholecystokinin: CCK(2) agonists displaying a novel binding mode” (J Med Chem, 2000)
Numbered stars: 1 amine (or outer) side, 2 acyl side, 3 side chain; on linkers, the order of the positions; unused ones are H or OH. Square brackets hold non-standard residues; d marks the D form. Peptide text beside a SMILES is read from it. * marks the point of attachment. NMeNle = CCCC[C@H](NC)C(=O)O; Suc = O=C(CCC(=O)[*:2])[*:1]; Malonamoyl = NC(=O)CC(=O)*; X3 = O=C(CS(=O)(=O)O)*; Boc = CC(C)(C)OC(=O)*; X2 = COC(=O)CC(=O)*; βAla = NCCC(=O)O

Tests used:
[1] = target: T1, Cholecystokinin receptor type A (Cavia porcellus, UniProt Q63931); test: Affinity against Cholecystokinin type A receptor on guinea pig pancreatic membranes.
T1 sequence (Q63931 whole entry): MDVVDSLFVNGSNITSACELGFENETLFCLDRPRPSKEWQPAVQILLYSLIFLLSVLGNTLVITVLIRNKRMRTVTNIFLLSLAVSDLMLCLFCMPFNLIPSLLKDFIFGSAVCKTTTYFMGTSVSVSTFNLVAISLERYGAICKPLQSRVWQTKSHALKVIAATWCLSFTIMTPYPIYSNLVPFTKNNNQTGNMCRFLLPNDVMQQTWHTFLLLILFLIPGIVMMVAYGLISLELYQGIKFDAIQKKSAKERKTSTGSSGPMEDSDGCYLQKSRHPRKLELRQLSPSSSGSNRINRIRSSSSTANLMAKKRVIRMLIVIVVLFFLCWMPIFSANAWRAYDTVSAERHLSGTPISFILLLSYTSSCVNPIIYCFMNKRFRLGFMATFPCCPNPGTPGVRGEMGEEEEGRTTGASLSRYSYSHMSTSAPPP

[2] = target: Gastrin/cholecystokinin type B receptor (Cavia porcellus); test: Binding affinity against cholecystokinin type B receptor on guinea pig cortex.
[3] = target: T2, Gastrin/cholecystokinin type B receptor (Rattus norvegicus, UniProt P30553); test: Compound was tested for binding affinity against Cholecystokinin type B receptor expressed in CHO cells on the rat brain.; format: cell-based
T2 sequence (P30553 whole entry): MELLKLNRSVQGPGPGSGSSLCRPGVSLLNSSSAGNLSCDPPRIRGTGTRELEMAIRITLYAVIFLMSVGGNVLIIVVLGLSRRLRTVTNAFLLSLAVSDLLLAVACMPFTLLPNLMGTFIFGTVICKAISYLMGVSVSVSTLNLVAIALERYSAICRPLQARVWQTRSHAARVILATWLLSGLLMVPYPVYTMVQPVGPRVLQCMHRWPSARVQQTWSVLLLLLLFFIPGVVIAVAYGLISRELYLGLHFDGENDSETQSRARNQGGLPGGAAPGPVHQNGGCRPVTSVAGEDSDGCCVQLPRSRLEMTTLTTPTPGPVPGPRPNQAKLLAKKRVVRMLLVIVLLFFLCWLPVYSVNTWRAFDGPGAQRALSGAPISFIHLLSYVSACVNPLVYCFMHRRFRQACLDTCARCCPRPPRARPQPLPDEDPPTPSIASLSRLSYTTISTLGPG

[4] = target: T2, Gastrin/cholecystokinin type B receptor; test: Affinity against Cholecystokinin type B receptor expressed in CHO cells on rat brain.; format: functional, cell-based

Row | Ki [1] [nM] | further results | SMILES
1 | > 3000 | – | CCCC[C@@H](C(=O)N[C@@H](CC(=O)O)C(=O)N[C@@H](Cc1ccccc1)C(N)=O)N(C)C(=O)[C@H](Cc1c[nH]c2ccccc12)NC(=O)[C@@H](C)N
2 | 4620 | – | CCCC[C@@H](C(=O)N[C@@H](CC(=O)O)C(=O)N[C@@H](Cc1ccccc1)C(N)=O)N(C)C(=O)[C@H](Cc1c[nH]c2ccccc12)NC(=O)CCNC(=O)OC(C)(C)C ({Boc-βAla}-W[NMeNle]DF-NH2)
3 | 2900 | – | CCCC[C@H](NC(=O)[C@H](Cc1c[nH]c2ccccc12)NC(=O)[C@H]1CCCCNC(=O)C[C@H](NC(=O)OC(C)(C)C)C(=O)N[C@H](Cc2ccc(OS(=O)(=O)O)cc2)C(=O)N[C@@H](CCCC)C(=O)N1)C(=O)N[C@@H](CC(=O)O)C(=O)N[C@@H](Cc1ccccc1)C(N)=O
4 | > 5000 | Ki [2]: 0.8 nM; Ki [3]: 2.6 nM | CCCC[C@@H](C(=O)N[C@@H](CC(=O)O)C(=O)N[C@@H](Cc1ccccc1)C(N)=O)N(C)C(=O)[C@H](Cc1c[nH]c2ccccc12)NC(=O)OC(C)(C)C (Boc-W[NMeNle]DF-NH2)
5 | 2210 | – | C[C@@]1(Cc2c[nH]c3ccccc23)NC(=O)CCCCCCC[C@@H](C(=O)N[C@@H](CC(=O)O)C(=O)N[C@@H](Cc2ccccc2)C(N)=O)NC1=O
6 | > 3000 | – | CCCC[C@@H](C(=O)N[C@@H](CC(=O)O)C(=O)N[C@@H](Cc1ccccc1)C(N)=O)N(C)C(=O)[C@H](Cc1c[nH]c2ccccc12)NC(=O)[C@H](C)N
7 | > 3000 | – | CCCC[C@@H](C(=O)N[C@@H](CC(=O)O)C(=O)N[C@@H](Cc1ccccc1)C(N)=O)N(C)C(=O)[C@H](Cc1c[nH]c2ccccc12)NC(=O)CCC(=O)O (Suc-W[NMeNle]DF-NH2)
8 | 22800 | EC50 [4]: 1.64 nM | CCCC[C@@H](C(=O)N[C@@H](CC(=O)O)C(=O)N[C@@H](Cc1ccccc1)C(N)=O)N(C)C(=O)[C@H](Cc1c[nH]c2ccccc12)NC(=O)CC(N)=O (Malonamoyl-W[NMeNle]DF-NH2)
9 | – | EC50 [4]: 0.56 nM | CCCC[C@@H](C(=O)N[C@@H](CC(=O)O)C(=O)N[C@@H](Cc1ccccc1)C(N)=O)N(C)C(=O)[C@H](Cc1c[nH]c2ccccc12)NC(=O)CS(=O)(=O)O (X3-W[NMeNle]DF-NH2)
10 | > 3000 | – | CCCC[C@@H](C(=O)N[C@@H](CC(=O)O)C(=O)N[C@@H](Cc1ccccc1)C(N)=O)N(C)C(=O)[C@@H](N)Cc1c[nH]c2ccccc12 (H-W[NMeNle]DF-NH2)
11 | > 3000 | – | CCCC[C@@H](C(=O)N[C@@H](CC(=O)O)C(=O)N[C@@H](Cc1ccccc1)C(N)=O)N(C)C(=O)[C@H](Cc1c[nH]c2ccccc12)NC(=O)CN (H-GW[NMeNle]DF-NH2)
12 | – | EC50 [4]: 2 nM | CCCC[C@@H](C(=O)N[C@@H](CC(=O)O)C(=O)N[C@@H](Cc1ccccc1)C(N)=O)N(C)C(=O)[C@H](Cc1c[nH]c2ccccc12)NC(=O)CC(=O)OC (X2-W[NMeNle]DF-NH2)
